28 compounds from patent US20090018134A1, “Compounds - 945” (AstraZeneca AB, priority 2007, published 2009) can be followed below.

T1 sequence (P42345 1362-2549): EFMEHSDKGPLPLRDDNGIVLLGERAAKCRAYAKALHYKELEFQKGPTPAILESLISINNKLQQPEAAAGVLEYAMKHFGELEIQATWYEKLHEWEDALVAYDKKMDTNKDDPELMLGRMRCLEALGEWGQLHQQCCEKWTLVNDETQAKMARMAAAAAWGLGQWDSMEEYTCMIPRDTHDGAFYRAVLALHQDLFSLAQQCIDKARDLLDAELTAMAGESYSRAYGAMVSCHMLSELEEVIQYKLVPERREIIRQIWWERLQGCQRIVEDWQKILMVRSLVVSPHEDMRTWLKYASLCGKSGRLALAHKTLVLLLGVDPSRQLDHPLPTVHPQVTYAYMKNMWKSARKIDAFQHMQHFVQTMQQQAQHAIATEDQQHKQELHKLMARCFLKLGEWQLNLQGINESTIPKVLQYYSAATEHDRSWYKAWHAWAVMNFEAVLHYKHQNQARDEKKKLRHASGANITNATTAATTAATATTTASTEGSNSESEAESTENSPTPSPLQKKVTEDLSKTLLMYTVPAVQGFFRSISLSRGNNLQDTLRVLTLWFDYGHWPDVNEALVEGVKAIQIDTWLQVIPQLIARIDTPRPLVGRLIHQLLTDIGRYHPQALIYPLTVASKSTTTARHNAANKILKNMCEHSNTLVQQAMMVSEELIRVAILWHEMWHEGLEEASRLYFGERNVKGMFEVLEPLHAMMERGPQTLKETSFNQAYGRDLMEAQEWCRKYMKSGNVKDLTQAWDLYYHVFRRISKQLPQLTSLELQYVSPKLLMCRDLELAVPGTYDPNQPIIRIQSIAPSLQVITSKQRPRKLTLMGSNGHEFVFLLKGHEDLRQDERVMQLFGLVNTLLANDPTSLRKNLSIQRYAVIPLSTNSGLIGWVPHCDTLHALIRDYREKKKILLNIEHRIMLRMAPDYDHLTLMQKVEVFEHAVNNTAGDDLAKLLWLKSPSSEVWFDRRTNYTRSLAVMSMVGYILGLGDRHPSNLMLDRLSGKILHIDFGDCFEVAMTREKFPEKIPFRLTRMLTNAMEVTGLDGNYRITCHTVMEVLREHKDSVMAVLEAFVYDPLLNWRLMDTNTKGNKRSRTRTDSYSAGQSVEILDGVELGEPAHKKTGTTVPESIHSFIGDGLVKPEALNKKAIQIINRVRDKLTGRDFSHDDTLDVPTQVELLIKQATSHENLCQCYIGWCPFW

The first assay addresses T1, mTOR (Homo sapiens, UniProt P42345).
T1 construct: FLAG; made in house
The assay is described as follows: In Vitro mTOR Kinase Assay (Echo), Test (a)(ii). The class given is biochemical. To be noted: read-out: mTOR Kinase Assay (Echo). The procedure, abridged:
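Inhibition of truncated mTOR (1362-2549, FLAG-tagged, purified from stably transfected HEK293 cells) is measured as reduced AlphaScreen signal from a phospho-T389-recognising antibody bound to the biotinylated peptide product. Kinase incubation lasts 2 hours at room temperature. Potency is given as IC50.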
Turning to `C[C@H]1COCCN1c1cc(C2(S(=O)(=O)c3ccccc3C(F)(F)F)CC2)nc(-c2ccc(NC(=O)NC3CCC3)cc2)n1` [Example 10a, 3-cyclobutyl-1-[4-[4-[(3S)-3-methylmorpholin-4-yl]-6-[1-[2-(trifluoromethyl)phenyl]sulfonylcyclopropyl]pyrimidin-2-yl]phenyl]urea], the IC50 was 39.5 nM.

In the case of `C[C@H]1COCCN1c1cc(C2(S(=O)(=O)c3ccccc3C(F)(F)F)CC2)nc(-c2ccc(NC(=O)Nc3ccccn3)cc2)n1` [Example 10b, 1-[4-[4-[(3S)-3-methylmorpholin-4-yl]-6-[1-[2-(trifluoromethyl)phenyl]sulfonylcyclopropyl]pyrimidin-2-yl]phenyl]-3-pyridin-2-yl-urea], the IC50 is 26.6 nM.

As to `CC(C)CNC(=O)Nc1ccc(-c2nc(N3CCOC[C@@H]3C)cc(C3(S(=O)(=O)c4ccccc4C(F)(F)F)CC3)n2)cc1` [Example 10c, 1-[4-[4-[(3S)-3-methylmorpholin-4-yl]-6-[1-[2-(trifluoromethyl)phenyl]sulfonylcyclopropyl]pyrimidin-2-yl]phenyl]-3-(2-methylpropyl)urea], the IC50 is 147 nM.

`CC(C)NC(=O)Nc1ccc(-c2nc(N3CCOC[C@@H]3C)cc(C3(S(=O)(=O)c4ccccc4C(F)(F)F)CC3)n2)cc1` [Example 10d, 1-[4-[4-[(3S)-3-methylmorpholin-4-yl]-6-[1-[2-(trifluoromethyl)phenyl]sulfonylcyclopropyl]pyrimidin-2-yl]phenyl]-3-propan-2-yl-urea]: the IC50 was found to be 43.2 nM.

Regarding `CCNC(=O)Nc1ccc(-c2nc(N3CCOC[C@@H]3C)cc(C3(S(=O)(=O)c4ccccc4C(F)(F)F)CC3)n2)cc1` [Example 10e, 1-ethyl-3-[4-[4-[(3S)-3-methylmorpholin-4-yl]-6-[1-[2-(trifluoromethyl)phenyl]sulfonylcyclopropyl]pyrimidin-2-yl]phenyl]urea], the IC50 was 6.91 nM.

On to `C[C@H]1COCCN1c1cc(C2(S(=O)(=O)c3ccccc3C(F)(F)F)CC2)nc(-c2ccc(NC(=O)NCCN(C)C)cc2)n1` [Example 10f, 3-(2-dimethylaminomethyl)-1-[4-[4-[(3S)-3-methylmorpholin-4-yl]-6-[1-[2-(trifluoromethyl)phenyl]sulfonylcyclopropyl]pyrimidin-2-yl]phenyl]urea], for which the IC50 amounted to 174 nM.

For `C[C@H]1COCCN1c1cc(C2(S(=O)(=O)c3ccccc3C(F)(F)F)CC2)nc(-c2ccc(NC(=O)NCCO)cc2)n1` [Example 10g], the IC50 amounted to 1.56 nM.

For the compound `CCCNC(=O)Nc1ccc(-c2nc(N3CCOC[C@@H]3C)cc(C3(S(=O)(=O)c4ccccc4C(F)(F)F)CC3)n2)cc1` [Example 10h, 3-[4-[4-[(3S)-3-methylmorpholin-4-yl]-6-[1-[2-(trifluoromethyl)phenyl]sulfonylcyclopropyl]pyrimidin-2-yl]phenyl]-1-propyl-urea], the IC50 turned out to be 26.8 nM.

With `CNC(=O)Nc1ccc(-c2nc(N3CCOC[C@@H]3C)cc(C3(S(=O)(=O)c4ccccc4C(F)(F)F)CC3)n2)cc1` [Example 10i, 3-methyl-1-[4-[4-[(3S)-3-methylmorpholin-4-yl]-6-[1-[2-(trifluoromethyl)phenyl]sulfonylcyclopropyl]pyrimidin-2-yl]phenyl]urea], the IC50 turned out to be 5.91 nM.

With `C[C@H]1COCCN1c1cc(C2(S(=O)(=O)c3ccccc3C(F)(F)F)CC2)nc(-c2ccc(NC(=O)Nc3ccc(C(F)(F)F)cc3)cc2)n1` [Example 10j, 1-[4-[4-[(3S)-3-methylmorpholin-4-yl]-6-[1-[2-(trifluoromethyl)phenyl]sulfonylcyclopropyl]pyrimidin-2-yl]phenyl]-3-[4-(trifluoromethyl)phenyl]urea], the IC50 came to 110 nM.

On to `C[C@H]1COCCN1c1cc(C2(S(=O)(=O)c3ccccc3C(F)(F)F)CC2)nc(-c2ccc(NC(=O)NC(C)(C)CO)cc2)n1` [Example 10k, 3-(1-hydroxy-2-methyl-propan-2-yl)-1-[4-[4-[(3S)-3-methylmorpholin-4-yl]-6-[1-[2-(trifluoromethyl)phenyl]sulfonylcyclopropyl]pyrimidin-2-yl]phenyl]urea], for which the IC50 stood at 50.2 nM.

With `C[C@H]1COCCN1c1cc(C2(S(=O)(=O)c3ccccc3C(F)(F)F)CC2)nc(-c2ccc(NC(=O)NCCCO)cc2)n1` [Example 10l, 3-(3-hydroxypropyl)-1-[4-[4-[(3S)-3-methylmorpholin-4-yl]-6-[1-[2-(trifluoromethyl)phenyl]sulfonylcyclopropyl]pyrimidin-2-yl]phenyl]urea], the IC50 stood at 18.3 nM.

On to `C[C@H]1COCCN1c1cc(C2(S(=O)(=O)c3ccccc3C(F)(F)F)CC2)nc(-c2ccc(NC(=O)Nc3cnn(C)c3)cc2)n1` [Example 10m, 1-[4-[4-[(3S)-3-methylmorpholin-4-yl]-6-[1-[2-(trifluoromethyl)phenyl]sulfonylcyclopropyl]pyrimidin-2-yl]phenyl]-3-(1-methylpyrazol-4-yl)urea], for which the IC50 was 4.97 nM.

Consider `CCS(=O)(=O)C1(c2cc(N3CCOC[C@@H]3C)nc(-c3ccc(NC(=O)NC4CC4)cc3)n2)CC1` [Example 11, 3-Cyclopropyl-1-[4-[4-(1-ethylsulfonylcyclopropyl)-6-[(3S)-3-methylmorpholin-4-yl]pyrimidin-2-yl]phenyl]urea], for which the IC50 came to 1.65 nM.

On to `CCS(=O)(=O)C1(c2cc(N3CCOC[C@@H]3C)nc(-c3ccc(NC(=O)NC)cc3)n2)CC1` [Example 11a, 1-[4-[4-(1-ethylsulfonylcyclopropyl)-6-[(3S)-3-methylmorpholin-4-yl]pyrimidin-2-yl]phenyl]-3-methyl-urea], for which the IC50 was 4.18 nM.

Take `CCNC(=O)Nc1ccc(-c2nc(N3CCOC[C@@H]3C)cc(C3(S(=O)(=O)CC)CC3)n2)cc1` [Example 11b, 1-ethyl-3-[4-[4-(1-ethylsulfonylcyclopropyl)-6-[(3S)-3-methylmorpholin-4-yl]pyrimidin-2-yl]phenyl]urea]: the IC50 is 3.33 nM.

As to `CCS(=O)(=O)C1(c2cc(N3CCOC[C@@H]3C)nc(-c3ccc(NC(=O)NC(C)C)cc3)n2)CC1` [Example 11c, 1-[4-[4-(1-ethylsulfonylcyclopropyl)-6-[(3S)-3-methylmorpholin-4-yl]pyrimidin-2-yl]phenyl]-3-propan-2-yl-urea], the IC50 was 24.7 nM.

Take `CCS(=O)(=O)C1(c2cc(N3CCOC[C@@H]3C)nc(-c3ccc(NC(=O)NC4CCC4)cc3)n2)CC1` [Example 11d, 3-cyclobutyl-1-[4-[4-(1-ethylsulfonylcyclopropyl)-6-[(3S)-3-methylmorpholin-4-yl]pyrimidin-2-yl]phenyl]urea]: the IC50 was determined as 6.42 nM.

Turning to `CCS(=O)(=O)C1(c2cc(N3CCOC[C@@H]3C)nc(-c3ccc(NC(=O)NCCO)cc3)n2)CC1` [Example 11e, 1-[4-[4-(1-ethylsulfonylcyclopropyl)-6-[(3S)-3-methylmorpholin-4-yl]pyrimidin-2-yl]phenyl]-3-(2-hydroxyethyl)urea], the IC50 was 1.35 nM.

For `CCS(=O)(=O)C1(c2cc(N3CCOC[C@@H]3C)nc(-c3ccc(NC(=O)NC(C)(C)CO)cc3)n2)CC1` [Example 11f, 1-[4-[4-(1-ethylsulfonylcyclopropyl)-6-[(3S)-3-methylmorpholin-4-yl]pyrimidin-2-yl]phenyl]-3-(1-hydroxy-2-methyl-propan-2-yl)urea], the IC50 was found to be 3.37 nM.

As for `CCS(=O)(=O)C1(c2cc(N3CCOC[C@@H]3C)nc(-c3ccc(NC(=O)NCCN(C)C)cc3)n2)CC1` [Example 11g, 3-(2-dimethylaminomethyl)-1-[4-[4-(1-ethylsulfonylcyclopropyl)-6-[(3S)-3-methylmorpholin-4-yl]pyrimidin-2-yl]phenyl]urea], the IC50 amounted to 313 nM.

As to `CCCNC(=O)Nc1ccc(-c2nc(N3CCOC[C@@H]3C)cc(C3(S(=O)(=O)CC)CC3)n2)cc1` [Example 11h, 3-[4-[4-(1-ethylsulfonylcyclopropyl)-6-[(3S)-3-methylmorpholin-4-yl]pyrimidin-2-yl]phenyl]-1-propyl-urea], the IC50 is 9.13 nM.

For `CCS(=O)(=O)C1(c2cc(N3CCOC[C@@H]3C)nc(-c3ccc(NC(=O)NCC(C)C)cc3)n2)CC1` [Example 11i, 1-[4-[4-(1-ethylsulfonylcyclopropyl)-6-[(3S)-3-methylmorpholin-4-yl]pyrimidin-2-yl]phenyl]-3-(2-methylpropyl)urea], the IC50 came out at 29.4 nM.

Consider `CCS(=O)(=O)C1(c2cc(N3CCOC[C@@H]3C)nc(-c3ccc(NC(=O)NCCCO)cc3)n2)CC1` [Example 11j, 1-[4-[4-(1-ethylsulfonylcyclopropyl)-6-[(3S)-3-methylmorpholin-4-yl]pyrimidin-2-yl]phenyl]-3-(3-hydroxypropyl)urea], for which the IC50 is 12.2 nM.

As for `CCS(=O)(=O)C1(c2cc(N3CCOC[C@@H]3C)nc(-c3ccc(NC(=O)Nc4ccc(C(F)(F)F)cc4)cc3)n2)CC1` [Example 11k, 1-[4-[4-(1-ethylsulfonylcyclopropyl)-6-[(3S)-3-methylmorpholin-4-yl]pyrimidin-2-yl]phenyl]-3-[4-(trifluoromethyl)phenyl]urea], the IC50 came to 3.32 nM.

`CCS(=O)(=O)C1(c2cc(N3CCOC[C@@H]3C)nc(-c3ccc(NC(=O)Nc4ccccn4)cc3)n2)CC1` [Example 11l, 1-[4-[4-(1-ethylsulfonylcyclopropyl)-6-[(3S)-3-methylmorpholin-4-yl]pyrimidin-2-yl]phenyl]-3-pyridin-2-yl-urea]: the IC50 was found to be 3.56 nM.

In the case of `CCS(=O)(=O)C1(c2cc(N3CCOC[C@@H]3C)nc(-c3ccc(NC(=O)Nc4cnn(C)c4)cc3)n2)CC1` [Example 11m, 1-[4-[4-(1-ethylsulfonylcyclopropyl)-6-[(3S)-3-methylmorpholin-4-yl]pyrimidin-2-yl]phenyl]-3-(1-methylpyrazol-4-yl)urea], the IC50 was determined as 4.37 nM.

Regarding `CS(=O)(=O)C1(c2cc(N3CCOCC3)nc(-c3ccc(NC(=O)NC4CC4)cc3)n2)CC1` [Example 12, 3-Cyclopropyl-1-[4-[4-(1-methylsulfonylcyclopropyl)-6-morpholin-4-ylpyrimidin-2-yl]phenyl]urea], the IC50 was determined as 4.21 nM.

Still in this assay, the particulars now being: table of enzyme assay Test (a)(ii); read-out: Test (a)(ii) IC50.
Regarding `CCS(=O)(=O)C1(c2cc(N3CCOC[C@@H]3C)nc(-c3ccc(NC(=O)NC)cc3)n2)CC1` [Example 11a, 1-[4-[4-(1-ethylsulfonylcyclopropyl)-6-[(3S)-3-methylmorpholin-4-yl]pyrimidin-2-yl]phenyl]-3-methyl-urea], the IC50 stood at 5.9 nM.

As for `CCS(=O)(=O)C1(c2cc(N3CCOC[C@@H]3C)nc(-c3ccc(NC(=O)NCCO)cc3)n2)CC1` [Example 11e, 1-[4-[4-(1-ethylsulfonylcyclopropyl)-6-[(3S)-3-methylmorpholin-4-yl]pyrimidin-2-yl]phenyl]-3-(2-hydroxyethyl)urea], the IC50 stood at 1.97 nM.
